Test results reported in US20240319156A1, “DEVICE FOR TESTING VAPORIZABLE FLUIDS IN A HUMAN AIRWAY MODEL” (Rowan University, priority 2022, published 2024).

Test system: human airway model tissue
Conditions: e-cigarette vapor exposure day 20 to day 34; vs untreated 'no battery' tissue
Source text: The investigation compared how human airway model tissue was affected by e-cigarette vapors generated from two different vape-liquids, propylene glycol/vegetable glycerin ‘PG:VG’, and vitamin E acetate ‘VEA’.
Referring to FIGS. 30A-30B, illustration of experimental design used in research investigation, human airway model tissues were formed from day 0 to day 20, tissues were exposed to experimental vapors from day 20 to day 34.

`CC(=O)Oc1c(C)c(C)c2c(c1C)CCC(C)(CCC[C@H](C)CCC[C@H](C)CCCC(C)C)O2` (stereo partly shown) [VEA, vitamin E acetate] was tested, and the “tissue morphology in stained cross-sections” value was “present typical structure and are undamaged”.
